{"source": "patent US11129801B2", "about": "(SigmaThera SAS, priority 2016, dated 2021)", "key": {"sigma-1R": {"test_system": "sigma-1R", "details": "read-out: IC50 / affinity for sigma-1R; cited from earlier work"}, "Bax/Bcl-2": {"test_system": "Bax/Bcl-2", "assay": "ELISA of cortical Bax/Bcl-2 ratio, Aβ25-35 mouse model", "format": "in vivo", "details": "Experiment 2, post-treatment, 1 mg/kg", "procedure": "(§1) In Experiment 2, twelve mice per experimental group were administered Sc.Aβ or Aβ25-35-amyloid peptide on day 0 by i.c.v. injection. […] Animals were tested at day 7 and later.\n(§2) For each of Experiments 1-4, on day 7, all animals were tested for the spontaneous alternation performance in the Y-maze test, an index of spatial working memory. On day 8 and 9, the contextual long-term memory of the animals was assessed using the step-through type passive avoidance procedure. On day 9, immediately after the retention session, animals were sacrificed by decapitation and the hippocampus and cortex dissected out. Lipid peroxidation was analyzed in the hippocampus, whereas neuroinflammation, apoptosis, amyloid burden and hyperphosphorylation of tau protein were analyzed in cortex.\nEnzyme-linked immunosorbant assay (ELISA) assays: Contents in GFAP, Caspase 12, Amyloid-beta 1-40, Amyloid-beta 1-42, Total Tau, and pTau on Ser199 were analyzed by using commercial ELISA assay kit. • GFAP: Supplier: USCNK #Ref: SEA068Mu • Total Tau: Supplier: Novex #Ref: KMB7011 • pTau (S199): Supplier: Novex #Ref: KMB7041 • Amyloid beta 1-40: Supplier: Novex #Ref: KMB3481 • Amyloid beta 1-42: Supplier: Novex #Ref: KMB3441 • Caspase-12: Supplier: LSBio #Ref: LS-F11023 • BAX: Supplier: Euromedex#Ref: SEB343Mu • BCL2: Supplier: Euromedex #Ref: SEA778Mu […]"}, "[1]": {"test_system": "Aβ25-35 mouse model of Alzheimer's disease", "assay": "Step-through passive avoidance test, Aβ25-35 mouse model", "format": "in vivo", "procedure": "(§3) The compound efficacy was evaluated 7 days after the peptide administration on the attenuation of the Aβ25-35-induced learning deficits (spatial working memory using the spontaneous alternation in the Y-maze test, and contextual long-term memory using the passive avoidance test).\n(§4) The mice were tested 7 days post injection or at the indicated time points.\nas §1\nEach of these doses was, by itself, unable to produce any protective effect. The synergy/additivity/antagonism was evaluated by calculating the combination index. […] Animals were then tested at day 7 and later.\nas §2\n(§5) The homogeneous oligomeric preparation of Aβ25-35 peptide was performed according to the AMYLGEN's own procedure. Each mouse was anesthetized with isoflurane 2.5% and injected i.c.v. with Aβ25-35 peptide (9 nmol/mouse) or Sc.Aβ peptide (9 nmol/mouse), in a final volume of 3 μl/mouse, according to the previously described method (Maurice T, et al. (1996). Brain Res. 706(2): 181-193, Maurice T, et al. (1998) Neuroscience 83(2): 413-428, Meunier J, et al. (2006) British J. Pharmacol. 149(8): 998-1012, Villard V, et al. (2009) Neuropsychopharmacology 34(6): 1552-1566, Villard V, et al. (2011) J. Pharmacol. Sci. 115(3): 279-292).\nAnimals: Male Swiss mice, 6 weeks old and weighing 30-35 g, from JANVIER (Saint Berthevin, France), were kept for housing and experiments took place within the animal facility building of the University of Montpellier 2 (CECEMA, Office of Veterinary Services agreement #B-34-172-23). Animals were housed in groups with access to food and water ad libitum, except during behavioral experiments. They were kept in a temperature and humidity controlled animal facility on a 12 h/12 h light/dark cycle (lights off at 07:00 pm). […]\nPassive avoidance test: The passive avoidance task was used to evaluate learning and memory in mice treated with igmesine. […] The step-through latency, that is, the latency spent to enter the dark compartment, and the number of vocalizations was recorded. […]"}, "[2]": {"test_system": "Aβ25-35 mouse model of Alzheimer's disease", "assay": "Spontaneous alternation in the Y-maze, Aβ25-35 mouse model", "format": "in vivo", "procedure": "as §3, §4, §1\nThe synergy/additivity/antagonism was evaluated by calculating the combination index. […] Animals were then tested at day 7 and later.\nAnimals were tested at day 7 and later.\nas §2, §5\nAnimals: Male Swiss mice, 6 weeks old and weighing 30-35 g, from JANVIER (Saint Berthevin, France), were kept for housing and experiments took place within the animal facility building of the University of Montpellier 2 (CECEMA, Office of Veterinary Services agreement #B-34-172-23). Animals were housed in groups with access to food and water ad libitum, except during behavioral experiments. They were kept in a temperature and humidity controlled animal facility on a 12 h/12 h light/dark cycle (lights off at 07:00 pm). Mice were numbered by marking their tail using permanent markers. All animal procedures were conducted in strict adherence to the European Union directive of Sep. 22, 2010 (2010/63/UE). Diagnostic summary reports of JANVIER were annexed to the study report.\nSpontaneous alternation performance: Immediate working memory performance was assessed by recording spontaneous alternation behavior during a single session in a Y-maze as described previously (Itoh J, et al. (1993) Eur J Pharmacol 236(3): 341-345; Hiramatsu M and Inoue K (1999) Br J Pharmacol 127(3): 655-660). The Y-maze is made of grey polyvinylchloride. Each arm of the Y-maze was 40 cm long, 3 cm wide, and 13 cm high at the bottom, 10 cm wide at the top, and converging at an equal angle. Each mouse was placed at the end of one arm and allowed to move freely through the maze during an 8 min session. The series of arm entries, including possible returns into the same arm, was checked visually. An alternation was defined as entries into all three arms on consecutive occasions. The number of maximum alternations is therefore the total number of arm entries minus two and the percentage of alternation was calculated as (actual alternations/maximum alternations)×100. Parameters included the percentage of alternation (memory index) and total number of arm entries (exploration index)."}, "[3]": {"details": "Experiment 1, pre-treatment, 0.1, 0.3, 1 mg/kg i.p."}, "[4]": {"details": "Experiment 2, post-treatment day 1 to day 6"}}, "data": [{"smiles": "CCC(C/C=C/c1ccccc1)(c1ccccc1)N(C)CC1CC1", "note": "(single isomer, unassigned; (+)) [igmesine, (+)-(E)-N-(cyclopropylmethyl)-N-methyl-3,6-diphenylhex-5-en-3-amine]", "values": [{"measurement": "IC50", "setting": "sigma-1R", "result": "39 ± 8", "unit": "nM"}, {"measurement": "cortical Bax/Bcl-2 ratio elevation", "setting": "Bax/Bcl-2", "result": "fully normalized"}, {"measurement": "prevention of passive avoidance deficits, escape latency", "setting": "[1]; [3]", "result": "at the highest dose"}, {"measurement": "prevention of passive avoidance deficits, step-through latency", "setting": "[1]; [3]", "result": "significant prevention at the two highest dose tested"}, {"measurement": "prevention of passive avoidance deficits, escape latency", "setting": "[1]; [4]", "result": "significant prevention at the highest dose tested"}, {"measurement": "prevention of passive avoidance deficits, step-through latency", "setting": "[1]; [4]", "result": "significant prevention at the highest dose tested"}, {"measurement": "prevention of Aβ25-35-induced spontaneous alternation deficits", "setting": "[2]; Experiment 1, i.p. 20 min before Aβ25-35, 0.1, 0.3, 1 mg/kg", "result": "dose-dependently prevented"}, {"measurement": "prevention of Aβ25-35-induced spontaneous alternation deficits", "setting": "[2]; Experiment 2, post-treatment i.p. day 1 to day 6", "result": "prevented the Aβ25-35-induced deficits at the highest doses tested"}, {"measurement": "highest sub-active dose, spontaneous alternation", "setting": "[2]; Experiment 3, i.p.", "result": 0.1, "unit": "mg/kg"}]}]}
